One data set relates to MCF7. In words: Cytotoxicity against human MCF7 cells. In kind it is functional.
A further data set deals with DU-145. The data set is described as follows: Cytotoxicity against human DU145 cells. It counts as functional.
Another data set has as its system BXPC-3. In words: Cytotoxicity against human BxPC3 cells. It counts as functional.
The next data set deals with SF-268. In words: Cytotoxicity against human SF268 cells. It counts as functional.
A further data set has as its system KM-20L2. In words: Cytotoxicity against human KM20L2 cells. It counts as functional.
Another data set has as its system NCI-H460. In words: Cytotoxicity against human NCI-H460 cells. In kind it is functional.
Another data set has as its system P388. The data set is described as follows: Cytotoxicity against mouse P388 cells. In kind it is functional. As to conditions: read-out: ED50 (the source's name).
Data set [1] in a line: Solubility in water. In kind it is physicochemical.

Each structure is given as a SMILES string. Converted amounts (≈) assume the structure as drawn.

The term GI50 denotes the concentration at which growth is held to half of that of the control. `C=C[C@H]1CN2CC[C@H]1C[C@@H]2[C@@H](O)c1ccnc2ccc(OC)cc12.O=C1N[C@H]2[C@H](OP(=O)(O)O)[C@H](O)[C@@H](O)[C@H](O)[C@@H]2c2cc3c(c(O)c21)OCO3`: the GI50 came out at 0.38 µg/mL with MCF7; 0.2 µg/mL with DU-145; 0.34 µg/mL with BXPC-3; 0.27 µg/mL in the data set on SF-268; 0.23 µg/mL in the data set on KM-20L2; 0.36 µg/mL in the data set with NCI-H460. Besides, in the data set with P388, the EC50 turned out to be 0.21 µg/mL.
In the case of `O=C1N[C@@H]2C(=C[C@H](O)[C@@H](O)[C@H]2O)c2cc3c(c(O)c21)OCO3` [NARCICLASINE], the GI50 in the data set with MCF7 came to 0.0032 µg/mL (≈ 0.0104 µM); in the data set with DU-145, 0.0032 µg/mL (≈ 0.0104 µM); in the data set with BXPC-3, 0.0035 µg/mL (≈ 0.0114 µM); in the data set on SF-268 it was 0.0031 µg/mL (≈ 0.0101 µM); in the data set with KM-20L2 it was 0.0032 µg/mL (≈ 0.0104 µM); with NCI-H460, 0.0084 µg/mL (≈ 0.0273 µM). Moreover, in the data set on P388, the EC50 was 0.013 µg/mL (≈ 0.0423 µM).
As for `O=C1N[C@H]2[C@H](OP(=O)(O)O)[C@H](O)[C@@H](O)[C@H](O)[C@@H]2c2cc3c(c(O)c21)OCO3`, the GI50 is 0.43 µg/mL (≈ 1.06 µM) in the data set on MCF7; 0.2 µg/mL (≈ 0.494 µM) with DU-145; 0.36 µg/mL (≈ 0.888 µM) with BXPC-3; 0.35 µg/mL (≈ 0.864 µM) in the data set on SF-268; 0.33 µg/mL (≈ 0.814 µM) with KM-20L2; 0.42 µg/mL (≈ 1.04 µM) in the data set with NCI-H460. Besides, the EC50 with P388 is 0.047 µg/mL (≈ 0.116 µM).
For `C1COCCN1.O=C1N[C@H]2[C@H](OP(=O)(O)O)[C@H](O)[C@@H](O)[C@H](O)[C@@H]2c2cc3c(c(O)c21)OCO3`, the GI50 was found to be 0.4 µg/mL in the data set with MCF7; 0.18 µg/mL in the data set with DU-145; 0.29 µg/mL in the data set with BXPC-3; 0.38 µg/mL with SF-268; 0.37 µg/mL in the data set on KM-20L2; 0.46 µg/mL with NCI-H460. The EC50 with P388 came to 0.27 µg/mL.
With `C1CNCCN1.O=C1N[C@H]2[C@H](OP(=O)(O)O)[C@H](O)[C@@H](O)[C@H](O)[C@@H]2c2cc3c(c(O)c21)OCO3`, the 50% growth inhibitory concentration (GI50) in the data set on MCF7 is 0.38 µg/mL; in the data set on DU-145, 0.21 µg/mL; with BXPC-3, 0.31 µg/mL; in the data set with SF-268 it was 0.27 µg/mL; in the data set with KM-20L2 it was 0.24 µg/mL; with NCI-H460, 0.35 µg/mL. Moreover, the EC50 in the data set with P388 stood at 0.019 µg/mL.
Turning to `O=C1N[C@H]2[C@H](OP(=O)([O-])[O-])[C@H](O)[C@@H](O)[C@H](O)[C@@H]2c2cc3c(c(O)c21)OCO3.[Mg+2]`, the concentration for 50% growth inhibition (GI50) in the data set with MCF7 was 0.44 µg/mL; with DU-145 it was 0.22 µg/mL; in the data set with BXPC-3, 0.4 µg/mL; in the data set with SF-268, 0.36 µg/mL; with KM-20L2, 0.36 µg/mL; in the data set with NCI-H460, 0.42 µg/mL. Also, the EC50 with P388 stood at 0.02 µg/mL.
Usually solubility stands for the concentration that dissolves in the medium under given conditions. A higher solubility goes with much dissolved substance. Consider `O=C1N[C@H]2[C@H](O)[C@H](O)[C@@H](O)[C@H](O)[C@@H]2c2cc3c(c(OP(=O)([O-])[O-])c21)OCO3.[Na+].[Na+]`, for which the GI50 was determined as 0.2 µg/mL in the data set on MCF7; 0.026 µg/mL with DU-145; 0.2 µg/mL in the data set with BXPC-3; 0.079 µg/mL with SF-268; 0.17 µg/mL with KM-20L2; 0.19 µg/mL with NCI-H460. The compound also displayed a solubility in data set [1] of 20 µg/mL. The EC50 in the data set on P388 stood at 0.24 µg/mL.
For the compound `O=C1N[C@H]2[C@H](O)[C@H](O)[C@@H](O)[C@H](O)[C@@H]2c2cc3c(c(O)c21)OCO3` [PANCRATISTATIN], the 50% growth inhibitory concentration (GI50) in the data set with MCF7 is 0.023 µg/mL (≈ 0.0707 µM); in the data set with DU-145 it was 0.015 µg/mL (≈ 0.0461 µM); in the data set on BXPC-3 it was 0.02 µg/mL (≈ 0.0615 µM); in the data set with SF-268, 0.014 µg/mL (≈ 0.043 µM); in the data set on KM-20L2 it was 0.025 µg/mL (≈ 0.0769 µM); with NCI-H460, 0.032 µg/mL (≈ 0.0984 µM). The concentration in solution in data set [1] (solubility) was 53 µg/mL (≈ 163 µM). Besides, in the data set on P388, the EC50 was determined as 0.017 µg/mL (≈ 0.0523 µM).
With `O=C1N[C@H]2[C@H](OP(=O)([O-])O)[C@H](O)[C@@H](O)[C@H](O)[C@@H]2c2cc3c(c(O)c21)OCO3.[Li+]`, the GI50 in the data set on MCF7 was found to be 0.39 µg/mL; in the data set on DU-145 it was 0.2 µg/mL; with BXPC-3 it was 0.3 µg/mL; in the data set on SF-268, 0.28 µg/mL; in the data set with KM-20L2, 0.25 µg/mL; in the data set with NCI-H460, 0.35 µg/mL. In the data set on P388, the EC50 was 0.036 µg/mL.
Regarding `O=C1N[C@H]2[C@H](OP(=O)([O-])[O-])[C@H](O)[C@@H](O)[C@H](O)[C@@H]2c2cc3c(c(O)c21)OCO3.[Ca+2]`, the GI50 with MCF7 was found to be 0.36 µg/mL; in the data set with DU-145 it was 0.12 µg/mL; with BXPC-3, 0.25 µg/mL; in the data set on SF-268, 0.26 µg/mL; in the data set on KM-20L2, 0.23 µg/mL; in the data set with NCI-H460 it was 0.27 µg/mL. Moreover, in the data set with P388, the EC50 came out at 0.21 µg/mL.
For `O=C1N[C@H]2[C@@H]3OP(=O)([O-])O[C@@H]3[C@@H](O)[C@H](O)[C@@H]2c2cc3c(c(O)c21)OCO3.[Na+]`, the GI50 in the data set with MCF7 amounted to 2.9 µg/mL; with DU-145, 2.3 µg/mL; in the data set with BXPC-3, 3.3 µg/mL; in the data set with SF-268, 2.9 µg/mL; in the data set on KM-20L2, 3.7 µg/mL; with NCI-H460, 3.8 µg/mL. In addition, the EC50 with P388 was determined as 3.33 µg/mL.
With `C=C[C@H]1CN2CC[C@H]1C[C@H]2[C@H](O)c1ccnc2ccc(OC)cc12.O=C1N[C@H]2[C@H](OP(=O)(O)O)[C@H](O)[C@@H](O)[C@H](O)[C@@H]2c2cc3c(c(O)c21)OCO3`, the GI50 in the data set with MCF7 was 0.35 µg/mL; with DU-145, 0.15 µg/mL; in the data set with BXPC-3 it was 0.23 µg/mL; in the data set on SF-268 it was 0.28 µg/mL; in the data set with KM-20L2 it was 0.22 µg/mL; in the data set on NCI-H460, 0.31 µg/mL. Also, in the data set with P388, the EC50 was found to be 0.066 µg/mL.
For `O=C1N[C@H]2[C@H](OP(=O)([O-])[O-])[C@H](O)[C@@H](O)[C@H](O)[C@@H]2c2cc3c(c(O)c21)OCO3.[Zn+2]`, the 50% growth inhibitory concentration (GI50) was 0.47 µg/mL in the data set with MCF7; 0.17 µg/mL in the data set on DU-145; 0.27 µg/mL with BXPC-3; 0.38 µg/mL with SF-268; 0.3 µg/mL with KM-20L2; 0.42 µg/mL in the data set with NCI-H460. Further, in the data set with P388, the EC50 is 0.17 µg/mL.
Turning to `O=C(O[C@H]1[C@H](O)[C@H]2OP(=O)([O-])O[C@H]2[C@@H]2NC(=O)c3c(cc4c(c3O)OCO4)[C@H]21)c1ccccc1.[Na+]`, the GI50 in the data set with MCF7 came to 0.041 µg/mL; in the data set on DU-145, 0.13 µg/mL; in the data set with BXPC-3, 0.25 µg/mL; in the data set on SF-268 it was 0.17 µg/mL; in the data set with KM-20L2 it was 0.13 µg/mL; in the data set on NCI-H460, 0.029 µg/mL. In the data set on P388, the EC50 worked out at 0.061 µg/mL.
Turning to `O=C1N[C@@H]2C(=C[C@H](O)[C@H]3OP(=O)([O-])O[C@H]32)c2cc3c(c(O)c21)OCO3.[Na+]` [SODIUM NARCISTATIN], the GI50 in the data set on MCF7 turned out to be 0.059 µg/mL; in the data set on DU-145, 0.031 µg/mL; with BXPC-3, 0.069 µg/mL; in the data set on SF-268 it was 0.047 µg/mL; with KM-20L2, 0.06 µg/mL; in the data set on NCI-H460, 0.058 µg/mL. In the data set with P388, the EC50 turned out to be 0.012 µg/mL.
On to `O=C(O[C@H]1[C@H](O)[C@@H](O)[C@@H](O)[C@@H]2NC(=O)c3c(cc4c(c3O)OCO4)[C@H]21)c1ccccc1` [PHENPANSTATIN], for which the GI50 in the data set on MCF7 turned out to be 0.00031 µg/mL (≈ 0.000722 µM); with DU-145, 0.00021 µg/mL (≈ 0.000489 µM); in the data set with BXPC-3 it was 0.0019 µg/mL (≈ 0.00442 µM); in the data set with SF-268, 0.00055 µg/mL (≈ 0.00128 µM); in the data set on KM-20L2, 0.00037 µg/mL (≈ 0.000862 µM); with NCI-H460, 0.0001 µg/mL (≈ 0.000233 µM). Also, the EC50 in the data set on P388 was determined as 0.0016 µg/mL (≈ 0.00373 µM).
With `O=C1N[C@H]2[C@H](OP(=O)([O-])O)[C@H](O)[C@@H](O)[C@H](O)[C@@H]2c2cc3c(c(O)c21)OCO3.[K+]`, the GI50 with MCF7 amounted to 0.46 µg/mL; in the data set with DU-145, 0.22 µg/mL; with BXPC-3 it was 0.45 µg/mL; in the data set with SF-268, 0.39 µg/mL; in the data set on KM-20L2, 0.3 µg/mL; with NCI-H460, 0.4 µg/mL. The EC50 with P388 is 0.025 µg/mL.
Take `O=C1N[C@H]2[C@H](OP(=O)(O)O)[C@H](O)[C@@H](O)[C@H](O)[C@@H]2c2cc3c(c(O)c21)OCO3.c1c[nH]cn1`: the GI50 came out at 0.33 µg/mL in the data set with MCF7; 0.13 µg/mL in the data set with DU-145; 0.25 µg/mL in the data set with BXPC-3; 0.21 µg/mL with SF-268; 0.13 µg/mL in the data set on KM-20L2; 0.25 µg/mL with NCI-H460. For the same compound, the EC50 with P388 was 0.063 µg/mL.
Turning to `O=C1N[C@H]2[C@H](OP(=O)([O-])O)[C@H](O)[C@@H](O)[C@H](O)[C@@H]2c2cc3c(c(O)c21)OCO3.[Na+]`, the GI50 in the data set with MCF7 worked out at 0.18 µg/mL; in the data set with DU-145 it was 0.94 µg/mL; in the data set on BXPC-3, 0.18 µg/mL; in the data set with SF-268, 0.12 µg/mL; in the data set with KM-20L2, 0.24 µg/mL; in the data set with NCI-H460 it was 0.38 µg/mL. In addition, the EC50 with P388 is 0.018 µg/mL.

Values taken from ChEMBL document CHEMBL1146488, “Antineoplastic agents. 511. Direct phosphorylation of phenpanstatin and pancratistatin” (J Nat Prod, 2004).
